# Test results: PubChem BioAssay (NCI)
# Values joined by “and” are separate entries in the source; they are usually repeats but may differ in a detail not shown here. Equal entries are not always repeated.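 Interpolation was linear, between the two tested concentrations surrounding the appropriate level; five concentrations were tested over 48 hours in 96-well plates. GI50 marks 50% less growth. TGI denotes the concentration required for complete inhibition of growth.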
# Columns and labels:
# Test in all cases: NCI anticancer screen, dose series, 48 h
# [1] = tested on: MDA-MB-468 breast
# [2] = tested on: HOP-92 NSCLC
# [3] = tested on: HT29 colon
# [4] = tested on: MDA-MB-435
# [5] = tested on: HCT-116 colon
# [6] = tested on: NCI-H460 lung
# [7] = tested on: CAKI-1 renal
# [8] = tested on: SF-539 CNS
# [9] = tested on: HOP-62 NSCLC
# [10] = tested on: KM12 colon
# [11] = tested on: SK-MEL-28 melanoma
# [12] = tested on: SNB-19 CNS
# [13] = tested on: MALME-3M melanoma
# [14] = tested on: HCT-15 colon
# [15] = tested on: TK-10 renal
# [16] = tested on: COLO 205 colon
# [17] = tested on: SF-268 CNS
# [18] = tested on: A549 NSCLC
# [19] = tested on: U251 CNS
# [20] = tested on: PC-3 prostate
# [21] = tested on: HS 578T breast
# [22] = tested on: SF-295 CNS
# [23] = tested on: HCC-2998 colon
# [24] = tested on: HL-60(TB) leukemia
# [25] = tested on: OVCAR-8 ovarian
# [26] = tested on: NCI/ADR-RES ovarian
# [27] = tested on: SK-MEL-5 melanoma
# [28] = tested on: K-562 leukemia
# [29] = tested on: UACC-257 melanoma
# [30] = tested on: RPMI-8226 leukemia
# [31] = tested on: NCI-H23 lung
# [32] = tested on: DU-145 prostate
# [33] = tested on: OVCAR-5 ovarian
# [34] = tested on: CCRF-CEM leukemia
# [35] = tested on: NCI-H522 lung
# [36] = tested on: SN12C renal
# [37] = tested on: LOX IMVI melanoma
# [38] = tested on: SK-OV-3 ovarian
# [39] = tested on: T-47D breast
# [40] = tested on: EKVX NSCLC
# [41] = tested on: SW-620 colon
# [42] = tested on: M14 melanoma
# [43] = tested on: IGROV1 ovarian
# [44] = tested on: ACHN renal
# [45] = tested on: BT-549 breast
# [46] = tested on: UACC-62 melanoma
# [47] = tested on: 786-0 renal
# [48] = tested on: RXF 393 renal
# [49] = tested on: NCI-H226 lung
# [50] = tested on: MOLT-4 leukemia
# [51] = tested on: OVCAR-4 ovarian
# [52] = tested on: MCF7 breast
# [53] = tested on: OVCAR-3 ovarian
# [54] = tested on: SR leukemia
# [55] = tested on: A498 renal
smiles,measurement,setting,value
CCCCc1nc2cc(/C=C/C(=O)NO)ccc2n1CCN(CC)CC,GI50,[1],0.177 µM
same,TGI,[1],1.91 µM
Cc1ccccc1NC(=O)c1sc2nc3c(cc2c1N)C(=O)CCC3,GI50,[1],0.529 µM
same,TGI,[1],6.21 µM
CN1CCN(c2cc(Nc3cc(C4CC4)[nH]n3)nc(Nc3ccc(CC(=O)NCc4cccc(F)c4)cc3)n2)CC1,GI50,[1],2.6 µM
same,TGI,[1],16.7 µM
Oc1ccc(-c2nc3ccc4[nH]ncc4c3c3c2CCCC3)c2cccnc12,GI50,[1],0.787 µM
same,TGI,[1],2.02 µM
CC(C)[C@@H](CS(=O)(=O)C(C)C)N1C(=O)[C@@](C)(CC(=O)O)C[C@H](c2cccc(Cl)c2)[C@H]1c1ccc(Cl)cc1,GI50,[1],11.6 µM
same,TGI,[1],45 µM
CCC(C)CC(CC)NCCN1CCN(C(CC)CC(C)CC)C1=S (stereo not given),GI50,[1],1.54 µM
same,TGI,[1],2.89 µM
C#CC#CC#CC#CC#CC#CC#CC#CCC1OC[C@H](COC(=O)O[C@@H](C(=O)O[C@H]2C[C@@]3(O)[C@@H](OC(=O)c4ccccc4)[C@@H]4[C@]5(OC(C)=O)CO[C@@H]5C[C@H](O)[C@@]4(C)C(=O)[C@H](OC(C)=O)C(=C2C)C3(C)C)[C@@H](NC(=O)c2ccccc2)c2ccccc2)O1 (stereo not given in full),GI50,[1],0.139 µM
same,TGI,[1],0.922 µM
C=C1C(=O)O[C@H]2[C@H]1CC/C(COC(=O)C(=O)c1cn(C)c3ccc(OC)cc13)=C\CC[C@@]1(C)O[C@@H]21,GI50,[1],1.73 µM
same,TGI,[1],2.92 µM
NCC(=O)CCC(=O)O,GI50,[1],> 100 µM
same,TGI,[1],> 100 µM
CC(C)(C)n1cc(-c2ccnc(NCCNS(=O)(=O)c3cccc4ccccc34)c2)c(-c2cccc(F)c2)n1,GI50,[1],11 µM
same,TGI,[1],33.6 µM
NC(N)=Nc1ccc(Oc2ccc(Nc3ccc(Cl)c(C(F)(F)F)c3)cc2)cc1,GI50,[1],1.55 µM
same,TGI,[1],3.39 µM
COc1ccc(Cn2cc(Cn3c(=O)c(-c4nc5ccccc5[nH]4)cc4ccccc43)nn2)c(OC)c1OC,GI50,[1],0.112 µM and 0.254 µM
COc1ccc(-c2[nH]ncc2-c2cc(OC)c(OC)c(OC)c2)cc1,GI50,[1],< 0.01 µM
same,TGI,[1],5.56 µM
Clc1ccc(-c2cn(-c3ccccc3)c(-c3ccccc3)n2)c(Cl)c1,GI50,[1],> 50 µM
same,TGI,[1],> 50 µM
CC(=O)OC1=C2C(CC3C4CC=C5CC(OC(C)=O)CCC5(C)C4CCC23C)C2C(=O)N(Cc3ccccc3)C(=O)C2C1 (stereo not given),GI50,[1],2.84 µM
same,TGI,[1],14.9 µM
COc1cc(/C=C/C(=O)c2cc(OC)c(OC)c(OC)c2)cc(OC)c1OC,GI50,[1],3.07 µM
same,TGI,[1],14.8 µM
CN(C)CCCC(=O)Nc1ccc(Cn2nnc3c2C(=O)c2nnn(Cc4ccc(NC(=O)CCCN(C)C)cc4)c2C3=O)cc1,GI50,[1],1.3 µM
same,TGI,[1],2.97 µM
CC12CCC(O)CC1CCC1C2CCC2(C)C(C3=CC(=O)OC3)CCC12 (stereo not given),GI50,[1],5.29 µM
same,TGI,[1],> 42.9 µM
CS(=O)(=O)Nc1ccc(-c2ccc3c(c2)ncn3-c2ccc(NC(=O)Nc3ccc(Br)cc3)cc2)cc1,GI50,[2],3.39 µM
same,TGI,[2],> 72.3 µM
same,GI50,[3],2.43 µM
same,TGI,[3],> 72.3 µM
same,GI50,[4],2.62 µM
same,TGI,[4],> 72.3 µM
same,GI50,[5],2.33 µM
same,TGI,[5],> 72.3 µM
same,GI50,[6],2.64 µM
same,TGI,[6],> 72.3 µM
same,GI50,[7],6 µM
same,TGI,[7],> 72.3 µM
same,GI50,[8],0.83 µM
same,TGI,[8],7.64 µM
same,GI50,[9],2.54 µM
same,TGI,[9],13 µM
same,GI50,[10],0.336 µM
same,TGI,[10],> 72.3 µM
same,GI50,[11],2.18 µM
same,TGI,[11],> 72.3 µM
same,GI50,[12],2.57 µM
same,TGI,[12],> 72.3 µM
same,GI50,[13],1.95 µM
same,TGI,[13],5.94 µM
same,GI50,[14],2.4 µM
same,TGI,[14],> 72.3 µM
same,GI50,[15],3.32 µM
same,TGI,[15],> 72.3 µM
same,GI50,[16],2.59 µM
same,TGI,[16],> 72.3 µM
same,GI50,[17],3.41 µM
same,TGI,[17],> 72.3 µM
same,GI50,[18],2.44 µM
same,TGI,[18],> 72.3 µM
same,GI50,[19],2.4 µM
same,TGI,[19],> 72.3 µM
same,GI50,[20],2.69 µM
same,TGI,[20],> 72.3 µM
same,GI50,[21],2.42 µM
same,TGI,[21],> 72.3 µM
same,GI50,[22],1.57 µM
same,TGI,[22],4.41 µM
same,GI50,[23],3.32 µM
same,TGI,[23],> 72.3 µM
same,GI50,[24],1.49 µM
same,TGI,[24],3.33 µM
same,GI50,[25],2.81 µM
same,TGI,[25],> 72.3 µM
same,GI50,[26],10.8 µM
same,TGI,[26],> 72.3 µM
same,GI50,[27],2.35 µM
same,TGI,[27],7.81 µM
same,GI50,[28],1.88 µM
same,TGI,[28],4.91 µM
same,GI50,[29],2.17 µM
same,TGI,[29],7.89 µM
same,GI50,[30],1.52 µM
same,TGI,[30],3.85 µM
same,GI50,[31],2.57 µM
same,TGI,[31],> 72.3 µM
same,GI50,[32],3.36 µM
same,TGI,[32],> 72.3 µM
same,GI50,[33],3.4 µM
same,TGI,[33],> 72.3 µM
same,GI50,[34],2.12 µM
same,TGI,[34],7.23 µM
same,GI50,[35],2.11 µM
same,TGI,[35],31.2 µM
same,GI50,[36],2.37 µM
same,TGI,[36],> 72.3 µM
same,GI50,[37],2.64 µM
same,TGI,[37],44.3 µM
same,GI50,[38],2.92 µM
same,TGI,[38],> 72.3 µM
same,GI50,[39],2.75 µM
same,TGI,[39],> 72.3 µM
same,GI50,[1],2.26 µM
same,TGI,[1],10.9 µM
same,GI50,[40],2.4 µM
same,TGI,[40],> 72.3 µM
same,GI50,[41],3.05 µM
same,TGI,[41],> 72.3 µM
same,GI50,[42],2.36 µM
same,TGI,[42],> 72.3 µM
same,GI50,[43],3.17 µM
same,TGI,[43],> 72.3 µM
same,GI50,[44],2.55 µM
same,TGI,[44],12.3 µM
same,GI50,[45],2.64 µM
same,TGI,[45],12.8 µM
same,GI50,[46],2.25 µM
same,TGI,[46],9.2 µM
same,GI50,[47],2.25 µM
same,TGI,[47],16 µM
same,GI50,[48],1.16 µM
same,TGI,[48],4.56 µM
same,GI50,[49],3.08 µM
same,TGI,[49],> 72.3 µM
same,GI50,[50],1.37 µM
same,TGI,[50],4.31 µM
same,GI50,[51],3.13 µM
same,TGI,[51],> 72.3 µM
same,GI50,[52],1.81 µM
same,TGI,[52],7.89 µM
same,GI50,[53],2.76 µM
same,TGI,[53],> 72.3 µM
same,GI50,[54],1.39 µM
same,TGI,[54],3.47 µM
same,GI50,[55],3.42 µM
same,TGI,[55],21.5 µM
Nc1nc(Nc2ccc3c(c2)CCC(N2CCCC2)CC3)nn1-c1cc2c(nn1)-c1ccccc1CCC2 (stereo not given),GI50,[1],1.4 µM
same,TGI,[1],2.9 µM
COc1cccc(C2C(C#N)=C(N)Oc3cc(OC)ccc32)c1 (stereo not given),GI50,[1],0.0322 µM
same,TGI,[1],> 60 µM
COC(=O)[C@]12CC[C@@H](C)[C@H](C)[C@@H]1C1=CC[C@@H]3[C@@]4(C)C=C(O)C(=O)C(C)=C4CC[C@@]3(C)[C@]1(C)CC2,GI50,[1],9.95 µM
same,TGI,[1],26.9 µM
Nc1c(O)c(S(=O)(=O)O)c(O)c2c1C(=O)c1ccccc1C2=O,GI50,[1],2.1 µM
same,TGI,[1],5.98 µM
CC(C)(C)c1ccc(C(=O)Nc2sc3c(c2C(N)=O)CC/C(=N\O)C3)cc1,GI50,[1],3.06 µM
same,TGI,[1],9.38 µM
COc1ccc(-c2nn(-c3cccc(NC(=O)Nc4cccc(C(F)(F)F)c4)c3)cc2-c2ccncc2)cc1Cl,GI50,[1],1.54 µM
same,TGI,[1],6.47 µM
COC1CCC(n2c([C@@H]3CCCC(=O)N3c3ccc(F)c(F)c3)nc3cc(-c4c(C)noc4C)ccc32)CC1 (stereo not given in full),GI50,[1],3.95 µM
same,TGI,[1],28.4 µM
COc1cc(C2c3cc4c(cc3OC(N3CCOCC3)C2C)OCO4)cc(OC)c1OC(C)=O (stereo not given),GI50,[1],20 µM
same,TGI,[1],> 100 µM
c1ccc2c(c1)ccc1c3ccccc3ccc21,GI50,[1],8.59 µM
same,TGI,[1],> 50 µM
COc1ccc2sc3c(NCCCNCCO)nc4ccccc4c3c(=O)c2c1,GI50,[1],1.73 µM
same,TGI,[1],3.41 µM
COc1ccc(C(=O)N/N=C/c2ccc(O)cc2O)cc1Nc1ccnc(C(F)(F)F)c1,GI50,[1],0.365 µM
same,TGI,[1],68.1 µM
CCOC(=O)c1cnc2c(cnn2CC)c1NN=C(C)C,GI50,[1],31.3 µM
same,TGI,[1],> 100 µM
O=C1C(=O)c2c(nc3ncccn23)-c2ccccc21,GI50,[1],0.205 µM
same,TGI,[1],0.555 µM
CC1(C)CC[C@]2(C(=O)O)CC[C@]3(C)[C@H](CC[C@@H]4[C@@]5(C)CCC(=O)C(C)(C)[C@@H]5CC[C@]43C)[C@H]2[C@H]1OC(=O)C(F)(F)F,GI50,[1],5.83 µM
same,TGI,[1],21.1 µM
CN1c2ccccc2C(C)(C)C12CC(c1ccc(Cl)c(S(=O)(=O)N3CCCC3)c1)=NO2 (stereo not given),GI50,[1],> 100 µM
same,TGI,[1],> 100 µM
